Laboratory results taken from patent publication US11912693B2, “Compounds for modulating S1P1 activity and methods of using the same” (TREVENA, INC., priority 2017, dated 2024).

What was measured:
[1] = target: T1, human sphingosine-1-phosphate receptor 1 (S1P1) (Homo sapiens (Human), UniProt P21453); assay: Inhibition of cAMP production (HTRF cAMP HiRange), S1P1 CHO-K1 cells; type: cell-based; conditions: for Emax: CHO-K1, efficacy (SPAN) normalized to fingolimod, read-out: hS1P1 cAMP SPAN; for hS1P1 cAMP pEC50: inhibition of cAMP production, S1P1 CHO-K1 cells
How it was run: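 CHO-K1 cells stably co-expressing human S1P1 (C-terminal Prolink tag) and EA-β-arrestin2 were grown in AssayComplete Media 6 at 37° C. and 5% CO2, plated, and incubated overnight. Agonist-driven inhibition of intracellular cAMP was read by TR-FRET with the HTRF cAMP HiRange kit on a PheraStar reader. Potency is pEC50, and efficacy (SPAN) is normalized to fingolimod.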
Target sequence in this assay (P21453 whole entry, looked up): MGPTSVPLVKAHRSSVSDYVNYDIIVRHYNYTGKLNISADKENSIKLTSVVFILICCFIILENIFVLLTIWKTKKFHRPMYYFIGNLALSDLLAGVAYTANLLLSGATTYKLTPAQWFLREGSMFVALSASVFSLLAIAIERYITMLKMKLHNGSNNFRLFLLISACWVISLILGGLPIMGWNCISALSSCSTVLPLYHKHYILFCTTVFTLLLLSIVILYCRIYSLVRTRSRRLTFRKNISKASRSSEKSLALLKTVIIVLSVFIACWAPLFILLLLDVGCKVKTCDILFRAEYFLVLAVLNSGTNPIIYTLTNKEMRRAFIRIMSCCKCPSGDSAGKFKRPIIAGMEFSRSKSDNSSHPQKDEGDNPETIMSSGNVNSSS

[2] = target: T1, human sphingosine-1-phosphate receptor 1 (S1P1); assay: β-Arrestin2 recruitment assay (PathHunter), S1P1 CHO-K1 cells; type: cell-based; conditions: for Emax: CHO-K1, efficacy (SPAN) normalized to fingolimod, read-out: hS1P1 B-arrestin2 SPAN; for hS1P1 B-arrestin2 pEC50: β-arrestin2 recruitment, S1P1 CHO-K1 cells
How it was run: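 Enzyme-fragment complementation read-out: agonist-driven β-arrestin2 binding to ProLink-tagged human S1P1 in stable CHO-K1 cells restores β-galactosidase, measured 1 h at room temperature after a 60 min 37° C. compound incubation. Potency as pEC50, efficacy relative to fingolimod (SPAN).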
Target sequence in this assay (P21453 whole entry, looked up): as above
Target sequence in this assay (P32121 whole entry partner, looked up): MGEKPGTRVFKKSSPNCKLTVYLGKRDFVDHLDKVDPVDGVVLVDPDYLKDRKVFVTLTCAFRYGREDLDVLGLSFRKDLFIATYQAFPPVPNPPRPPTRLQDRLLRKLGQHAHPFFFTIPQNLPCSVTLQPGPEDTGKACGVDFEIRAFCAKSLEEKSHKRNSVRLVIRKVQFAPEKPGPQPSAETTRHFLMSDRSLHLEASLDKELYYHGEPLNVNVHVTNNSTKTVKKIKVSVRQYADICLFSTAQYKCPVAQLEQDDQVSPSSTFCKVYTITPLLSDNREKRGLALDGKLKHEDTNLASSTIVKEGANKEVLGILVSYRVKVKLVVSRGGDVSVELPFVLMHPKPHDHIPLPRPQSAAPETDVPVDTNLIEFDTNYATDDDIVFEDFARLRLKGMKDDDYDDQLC

SMILES	Emax [1] [%]	hS1P1 cAMP pEC50 [1]	Emax [2] [%]	hS1P1 B-arrestin2 pEC50 [2]
CC(C)n1nnc2cc(-c3nc(-c4ccccc4C(F)(F)F)co3)ccc21 [Compound 432, 1-(propan-2-yl)-5-{4-[2-(trifluoromethyl)phenyl]-1,3-oxazol-2-yl}-1H-1,2,3-benzotriazole]	> 75	>6.5	> 75	>5
CC(C)n1nnc2cc(-c3nc4c(o3)CCCc3ccccc3-4)ccc21 [Compound 434, 4-[1-(propan-2-yl)-1H-1,2,3-benzotriazol-5-yl]-5-oxa-3-azatricyclo[8.4.0.0^2,6]tetradeca-1(14),2(6),3,10,12-pentaene]	< 75	<6.5	> 75	<5
COc1cc(C)c2nc(-c3ccc4c(c3)nnn4C(C)C)oc2c1 [Compound 436, 2-(1-isopropyl-1H-benzo[d][1,2,3]triazol-5-yl)-6-methoxy-4-methylbenzo[d]oxazole]	> 75	>6.5	> 75	<5
Cc1ccc2oc(-c3ccc4c(c3)nnn4CC(C)C)nc2c1 [Compound 437, 2-(1-isobutyl-1H-benzo[d][1,2,3]triazol-5-yl)-5-methylbenzo[d]oxazole]	> 75	>6.5	< 75	>5
CC(C)Nc1ccc(-c2nc(-c3ccc4sc(N)nc4c3)no2)cc1C#N [Compound 441, 5-(3-(2-aminobenzo[d]thiazol-5-yl)-1,2,4-oxadiazol-5-yl)-2-(isopropylamino)benzonitrile]	> 75	>6.5	> 75	>5
CCC1(CC)CC(=O)c2cc(-c3nc(-c4ccc5sc(N)nc5c4)no3)ccc2O1 [Compound 446, 6-(3-(2-aminobenzo[d]thiazol-5-yl)-1,2,4-oxadiazol-5-yl)-2,2-diethylchroman-4-one]	< 75	<6.5	< 75	<5
Cc1ccc2nc(-c3ccc4c(c3)nnn4CC(C)C)oc2c1 [Compound 448, 2-(1-isobutyl-1H-benzo[d][1,2,3]triazol-5-yl)-6-methylbenzo[d]oxazole]		<6.5		<5
Cc1cccc2nc(-c3ccc4c(c3)nnn4CC(C)C)oc12 [Compound 449, 2-(1-isobutyl-1H-benzo[d][1,2,3]triazol-5-yl)-7-methylbenzo[d]oxazole]		<6.5		<5

Now from value to molecule:

Emax [1] [%]	hS1P1 cAMP pEC50 [1]	Emax [2] [%]	hS1P1 B-arrestin2 pEC50 [2]	SMILES
> 75	>6.5	> 75	>5	Cc1ccccc1-c1coc(-c2ccc3c(c2)nnn3C(C)C)n1 [Compound 433, 5-[4-(2-methylphenyl)-1,3-oxazol-2-yl]-1-(propan-2-yl)-1H-1,2,3-benzotriazole]
> 75	>6.5	> 75	>5	CC(C)n1nnc2cc(-c3nc(-c4ccccc4N)co3)ccc21 [Compound 438, 2-{2-[1-(propan-2-yl)-1H-1,2,3-benzotriazol-5-yl]-1,3-oxazol-4-yl}aniline]
> 75	<6.5	> 75	<5	Cc1ccncc1-c1noc(-c2ccc3c(c2)nnn3C2CCOCC2)n1 [Compound 439, 5-[3-(4-methylpyridin-3-yl)-1,2,4-oxadiazol-5-yl]-1-(oxan-4-yl)-1H-1,2,3-benzotriazole]
> 75	>6.5	> 75	>5	N#Cc1cc(-c2nc(-c3ccc4sc(N)nc4c3)no2)ccc1NCC1CC1 [Compound 440, 5-(3-(2-aminobenzo[d]thiazol-5-yl)-1,2,4-oxadiazol-5-yl)-2-((cyclopropylmethyl)amino)benzonitrile]
	>6.5		>5	Cc1cccc2oc(-c3ccc4c(c3)nnn4CC(C)C)nc12 [Compound 447, 2-(1-isobutyl-1H-benzo[d][1,2,3]triazol-5-yl)-4-methylbenzo[d]oxazole]
